From publication PMC5590943, “Pharmacological characterisation of S 47445, a novel positive allosteric modulator of AMPA receptors” (PLoS ONE, 2017)

Assays:
[1] = tested on: α2 (non-selective); test: Binding assay, [3H]RX 821002
[2] = target: Estrogen a (h) (ERa) (Homo sapiens, UniProt P03372); test: Binding assay, fluormone ES2
[3] = set-up: method as in previous kinetic experiments (reference not given); settings: 0.3 mg/kg oral, rats; ref previous kinetic experiments (reference not given); read-out: Cerebral Cmax; cited from earlier work
[4] = target: EGFR kinase (h) (Homo sapiens, UniProt P00533); test: Enzyme and cell-based assay, ATP + biotinyl peptide (0.1 μM)
EGFR kinase (h), sequence (P00533 25-1210): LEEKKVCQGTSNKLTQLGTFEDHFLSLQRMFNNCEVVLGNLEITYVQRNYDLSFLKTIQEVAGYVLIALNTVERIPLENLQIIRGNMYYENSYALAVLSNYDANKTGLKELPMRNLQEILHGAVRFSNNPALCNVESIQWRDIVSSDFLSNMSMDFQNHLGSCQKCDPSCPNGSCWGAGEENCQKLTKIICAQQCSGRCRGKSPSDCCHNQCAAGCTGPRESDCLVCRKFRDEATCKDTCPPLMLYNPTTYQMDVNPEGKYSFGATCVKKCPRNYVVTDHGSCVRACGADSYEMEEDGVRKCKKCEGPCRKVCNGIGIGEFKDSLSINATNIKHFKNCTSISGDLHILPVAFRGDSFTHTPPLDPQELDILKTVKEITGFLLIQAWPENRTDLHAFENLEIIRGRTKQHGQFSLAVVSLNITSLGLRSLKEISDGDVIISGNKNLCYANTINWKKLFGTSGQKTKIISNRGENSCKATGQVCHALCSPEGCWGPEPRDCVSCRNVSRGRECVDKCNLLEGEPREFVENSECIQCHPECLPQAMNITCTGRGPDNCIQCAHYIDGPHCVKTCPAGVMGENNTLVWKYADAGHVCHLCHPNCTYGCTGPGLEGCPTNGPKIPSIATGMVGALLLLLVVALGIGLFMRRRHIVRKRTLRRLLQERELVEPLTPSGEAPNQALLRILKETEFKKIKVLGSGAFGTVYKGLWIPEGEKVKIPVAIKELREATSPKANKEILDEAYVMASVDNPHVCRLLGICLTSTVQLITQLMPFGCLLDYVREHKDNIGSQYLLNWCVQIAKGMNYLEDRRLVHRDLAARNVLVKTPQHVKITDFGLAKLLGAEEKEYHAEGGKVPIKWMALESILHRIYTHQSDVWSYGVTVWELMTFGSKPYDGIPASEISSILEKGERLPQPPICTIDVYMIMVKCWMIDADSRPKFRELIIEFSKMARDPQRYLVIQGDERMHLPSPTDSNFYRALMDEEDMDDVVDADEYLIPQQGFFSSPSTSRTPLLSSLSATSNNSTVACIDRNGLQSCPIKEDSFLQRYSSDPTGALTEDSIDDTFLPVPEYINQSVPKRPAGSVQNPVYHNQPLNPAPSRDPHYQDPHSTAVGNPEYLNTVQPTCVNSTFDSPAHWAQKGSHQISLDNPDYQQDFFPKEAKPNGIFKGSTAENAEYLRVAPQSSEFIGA

[5] = target: human GluK2 kainate receptors (Homo sapiens, UniProt Q13002); test: Glutamate-evoked current in oocytes expressing kainate receptors; settings: up to 100 μM; n = 12
human GluK2 kainate receptors, sequence (Q13002 32-908): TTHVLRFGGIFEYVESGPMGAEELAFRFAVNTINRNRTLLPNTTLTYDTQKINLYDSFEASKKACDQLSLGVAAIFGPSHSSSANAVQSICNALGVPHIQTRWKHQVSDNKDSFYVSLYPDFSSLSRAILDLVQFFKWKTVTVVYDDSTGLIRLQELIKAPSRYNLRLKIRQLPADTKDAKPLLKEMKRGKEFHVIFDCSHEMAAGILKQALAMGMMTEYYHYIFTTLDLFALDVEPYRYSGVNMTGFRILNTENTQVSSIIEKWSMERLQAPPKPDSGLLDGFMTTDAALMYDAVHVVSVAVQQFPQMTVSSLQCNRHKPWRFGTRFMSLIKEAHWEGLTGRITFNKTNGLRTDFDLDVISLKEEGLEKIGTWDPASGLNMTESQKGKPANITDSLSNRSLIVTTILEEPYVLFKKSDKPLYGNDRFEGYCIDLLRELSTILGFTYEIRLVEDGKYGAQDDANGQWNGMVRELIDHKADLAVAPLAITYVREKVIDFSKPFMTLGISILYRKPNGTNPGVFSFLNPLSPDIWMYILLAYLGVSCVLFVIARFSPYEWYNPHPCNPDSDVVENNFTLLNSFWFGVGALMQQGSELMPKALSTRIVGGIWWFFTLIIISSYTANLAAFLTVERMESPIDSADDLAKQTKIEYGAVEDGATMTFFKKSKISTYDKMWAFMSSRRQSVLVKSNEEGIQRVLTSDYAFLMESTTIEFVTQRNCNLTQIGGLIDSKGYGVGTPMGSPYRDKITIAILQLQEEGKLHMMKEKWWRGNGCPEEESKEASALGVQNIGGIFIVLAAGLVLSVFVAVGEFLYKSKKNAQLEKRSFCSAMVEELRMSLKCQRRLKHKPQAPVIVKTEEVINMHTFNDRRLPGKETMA

[6] = tested on: NMDA; test: Binding assay, [3H]CGP 39653, rat cerebral cortex membranes
[7] = tested on: Androgen (h) (AR); test: Binding assay, [3H]methyltrienolone
[8] = tested on: Ca2+ channel (L, DHP site); test: Binding assay, [3H](+)PN 200-110
[9] = tested on: rat primary cortical cell cultures; test: LDH release toxicity assay on rat primary cortical cell cultures; settings: S 47445 10 μM
[10] = target: p38a kinase (h) (Homo sapiens, UniProt Q16539); test: Enzyme and cell-based assay, ATP + ATF-2 (0.1 μM)
p38a kinase (h), sequence (Q16539 whole entry): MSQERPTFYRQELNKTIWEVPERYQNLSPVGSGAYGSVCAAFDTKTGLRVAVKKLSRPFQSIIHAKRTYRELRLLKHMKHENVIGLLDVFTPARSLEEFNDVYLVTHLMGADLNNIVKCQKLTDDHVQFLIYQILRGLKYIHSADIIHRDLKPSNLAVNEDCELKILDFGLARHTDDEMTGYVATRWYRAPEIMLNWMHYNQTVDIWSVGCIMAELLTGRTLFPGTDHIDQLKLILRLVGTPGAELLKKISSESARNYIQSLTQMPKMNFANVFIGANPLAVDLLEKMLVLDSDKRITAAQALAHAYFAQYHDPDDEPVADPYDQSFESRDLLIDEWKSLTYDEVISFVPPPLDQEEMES

[11] = tested on: K^+ATP channel; test: Binding assay, [3H]glibenclamide
[12] = tested on: ATPase (Na+/K+); test: Enzyme and cell-based assay, ATP (2 mM)
[13] = tested on: PDE3 (h); test: Enzyme and cell-based assay, [3H]cAMP + cAMP (0.1 μM)
[14] = tested on: Kainate; test: Binding assay, [3H]kainic acid, rat cerebral cortex membranes
[15] = tested on: Y (non-selective); test: Binding assay, [3H]NPY
[16] = tested on: GABA (non-selective); test: Binding assay, [3H]GABA
[17] = tested on: male NMRI mice; test: Spontaneous locomotor activity in mice; assay type: in vivo, mouse; settings: 10, 30 and 100 mg/kg p.o. acute
Protocol: Locomotor activity was measured in male NMRI mice (18–20 g, Janvier Labs, Le Genest Saint Isle, France) placed in open-fields equipped with infrared sensors (Imetronic, Pessac, France). Two parameters were automatically computed: the global locomotor activity and the number of rearing by counting the number of times the animal cut photocells. Mice were placed in the apparatus 30 min after oral administration of S 47445 (10, 30 and 100 mg/kg) or vehicle. Spontaneous locomotor activity was recorded for 60 min divided in 6 x 10-min periods. The global locomotor activity was analysed using two way ANOVA (dose x time) followed by Dunnett’s post hoc test. Analyses were performed using SAS v9.2 software (SAS Institute, Cary, NC).

[18] = tested on: Phospholipase C; test: Enzyme and cell-based assay, [3H]PIP2 (0.3 mM)
[19] = tested on: I2; test: Binding assay, [3H]idazoxan
[20] = tested on: CA3-CA1 hippocampal synapses; set-up: method as in PMID 28603025; settings: cited from earlier work
[21] = tested on: BZD (central); test: Binding assay, [3H]flunitrazepam
[22] = tested on: K^+V channel; test: Binding assay, [125I]α-dendrotoxin
[23] = read-out: Ki, glutamate binding site, n = 2

Estrogen a (h) (ERa), sequence (P03372 whole entry): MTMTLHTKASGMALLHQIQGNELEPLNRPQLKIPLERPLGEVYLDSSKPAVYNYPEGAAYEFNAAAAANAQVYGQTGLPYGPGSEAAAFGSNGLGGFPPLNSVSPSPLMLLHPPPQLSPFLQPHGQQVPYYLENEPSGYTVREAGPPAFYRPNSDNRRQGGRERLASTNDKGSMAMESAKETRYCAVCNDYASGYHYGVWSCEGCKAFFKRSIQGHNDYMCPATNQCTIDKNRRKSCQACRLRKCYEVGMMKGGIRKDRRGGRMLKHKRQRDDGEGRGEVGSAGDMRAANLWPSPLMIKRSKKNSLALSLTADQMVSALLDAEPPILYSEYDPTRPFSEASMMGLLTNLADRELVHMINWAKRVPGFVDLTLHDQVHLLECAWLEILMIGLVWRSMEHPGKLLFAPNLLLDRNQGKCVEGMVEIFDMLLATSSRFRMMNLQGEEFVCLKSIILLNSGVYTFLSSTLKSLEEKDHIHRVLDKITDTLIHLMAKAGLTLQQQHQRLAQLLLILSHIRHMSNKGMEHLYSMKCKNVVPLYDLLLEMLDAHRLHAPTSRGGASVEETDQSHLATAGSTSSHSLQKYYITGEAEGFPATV

O=C1c2cc3nnn(CCc4cccc(F)c4)c(=O)c3cc2OCN1C1CC1 [S 47445, 8-cyclopropyl-3-[2-(3-fluorophenyl)ethyl]-7,8-dihydro-3H-[1,3]oxazino[6,5-g][1,2,3]benzotriazine-4,9-dione]
% Inhibition of control specific binding ([1]; S 47445 1.0E-05 M): -5% | % Inhibition of control specific binding ([1]; S 47445 1.0E-07 M): -2% | % Inhibition of control specific binding ([2]; S 47445 1.0E-05 M): 5% | % Inhibition of control specific binding ([2]; S 47445 1.0E-07 M): 4% | Cmax [3]: 100 to 200 nM | % Inhibition of control specific binding ([4]; S 47445 1.0E-05 M): 0% | % Inhibition of control specific binding ([4]; S 47445 1.0E-07 M): -8% | Effect on glutamate-evoked current [5]: did not modify glutamate-evoked current | % Inhibition of control specific binding ([6]; S 47445 1.0E-05 M): -1% | % Inhibition of control specific binding ([6]; S 47445 1.0E-07 M): 2% | Ki [6, 23]: > 10 µM | % Inhibition of control specific binding ([7]; S 47445 1.0E-05 M): -5% | % Inhibition of control specific binding ([7]; S 47445 1.0E-07 M): 0% | % Inhibition of control specific binding ([8]; S 47445 1.0E-05 M): 1% | % Inhibition of control specific binding ([8]; S 47445 1.0E-07 M): -16% | Reduction of glutamate-induced LDH activity ([9]; glutamate 50 μM): 32.2% | Reduction of glutamate-induced LDH activity ([9]; glutamate 75 μM): 50.9% | Reduction of glutamate-induced LDH activity ([9]; glutamate 100 μM): 49.0% | % Inhibition of control specific binding ([10]; S 47445 1.0E-05 M): 4% | % Inhibition of control specific binding ([10]; S 47445 1.0E-07 M): 2% | % Inhibition of control specific binding ([11]; S 47445 1.0E-05 M): 0% | % Inhibition of control specific binding ([11]; S 47445 1.0E-07 M): 6% | % Inhibition of control specific binding ([12]; S 47445 1.0E-05 M): -2% | % Inhibition of control specific binding ([12]; S 47445 1.0E-07 M): -3% | % Inhibition of control specific binding ([13]; S 47445 1.0E-05 M): -5% | % Inhibition of control specific binding ([13]; S 47445 1.0E-07 M): 0% | % Inhibition of control specific binding ([14]; S 47445 1.0E-05 M): 25% | % Inhibition of control specific binding ([14]; S 47445 1.0E-07 M): 7% | Ki [14, 23]: > 10 µM | % Inhibition of control specific binding ([15]; S 47445 1.0E-05 M): -6% | % Inhibition of control specific binding ([15]; S 47445 1.0E-07 M): -4% | % Inhibition of control specific binding ([16]; S 47445 1.0E-05 M): 7% | % Inhibition of control specific binding ([16]; S 47445 1.0E-07 M): 4% | Global spontaneous locomotor activity [17]: did not significantly modify | Number of rearing [17]: did not influence | % Inhibition of control specific binding ([18]; S 47445 1.0E-05 M): 7% | % Inhibition of control specific binding ([18]; S 47445 1.0E-07 M): -5% | % Inhibition of control specific binding ([19]; S 47445 1.0E-05 M): 29% | % Inhibition of control specific binding ([19]; S 47445 1.0E-07 M): -5% | Age-related deficit of LTP ([20]; 10 mg/kg chronic, old alert mice): significantly counteracted the deficit of LTP | Long term potentiation (LTP) versus vehicle ([20]; 10 mg/kg p.o. acute, young alert mice): significantly increased long term potentiation | % Inhibition of control specific binding ([21]; S 47445 1.0E-05 M): -21% | % Inhibition of control specific binding ([21]; S 47445 1.0E-07 M): -2% | % Inhibition of control specific binding ([22]; S 47445 1.0E-05 M): -2% | % Inhibition of control specific binding ([22]; S 47445 1.0E-07 M): -6%
